According to PubChem BioAssay (NCI):
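Assay format: 96-well plates, 48-hour exposure. GI50 is the concentration that inhibits growth by half. Definition used: TGI = concentration required for complete inhibition of growth.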

Legend:
Assay in all cases: NCI tumour cell line growth inhibition, 48 h
RXF 393 renal = system: RXF 393 renal
SK-MEL-28 melanoma = system: SK-MEL-28 melanoma
SF-268 CNS = system: SF-268 CNS
UO-31 renal = system: UO-31 renal
EKVX NSCLC = system: EKVX NSCLC
LOX IMVI melanoma = system: LOX IMVI melanoma
786-0 renal = system: 786-0 renal
SNB-19 CNS = system: SNB-19 CNS
MDA-MB-231 breast = system: MDA-MB-231 breast
SR leukemia = system: SR leukemia
NCI-H23 lung = system: NCI-H23 lung
A498 renal = system: A498 renal
KM12 colon = system: KM12 colon
PC-3 prostate = system: PC-3 prostate
OVCAR-5 ovarian = system: OVCAR-5 ovarian
M14 melanoma = system: M14 melanoma
SF-295 CNS = system: SF-295 CNS
NCI/ADR-RES ovarian = system: NCI/ADR-RES ovarian
ACHN renal = system: ACHN renal
HCC-2998 colon = system: HCC-2998 colon
MCF7 breast = system: MCF7 breast
T-47D breast = system: T-47D breast
COLO 205 colon = system: COLO 205 colon
TK-10 renal = system: TK-10 renal
A549 NSCLC = system: A549 NSCLC
SNB-75 CNS = system: SNB-75 CNS
HT29 colon = system: HT29 colon
BT-549 breast = system: BT-549 breast
CAKI-1 renal = system: CAKI-1 renal

## COc1ccc(-c2cc(-c3ccc(C)cc3)nc3nc(=S)[nH]c(N)c23)cc1
RXF 393 renal
  GI50: 20.5 µM
  TGI: 44.5 µM
SK-MEL-28 melanoma
  GI50: 40.6 µM
  TGI: > 100 µM
SF-268 CNS
  GI50: 17.5 µM
  TGI: 35.5 µM
UO-31 renal
  GI50: 19.2 µM
  TGI: 48 µM
EKVX NSCLC
  GI50: 25.8 µM
  TGI: 96 µM
LOX IMVI melanoma
  GI50: 17.7 µM
  TGI: 34.5 µM
786-0 renal
  GI50: 22.4 µM
  TGI: 52.6 µM
SNB-19 CNS
  GI50: 37.6 µM
  TGI: > 100 µM
MDA-MB-231 breast
  GI50: 19.5 µM
  TGI: 48.3 µM
SR leukemia
  GI50: 24.6 µM
  TGI: 55.8 µM
NCI-H23 lung
  GI50: 21.9 µM
  TGI: 60.2 µM
A498 renal
  GI50: 19.2 µM
  TGI: 39.4 µM
KM12 colon
  GI50: 16.2 µM
  TGI: 36 µM
PC-3 prostate
  GI50: 37.7 µM
  TGI: > 100 µM
OVCAR-5 ovarian
  GI50: 39.3 µM
  TGI: 96.9 µM
M14 melanoma
  GI50: 19.1 µM
  TGI: 37.4 µM
SF-295 CNS
  GI50: 15.9 µM
  TGI: 34.9 µM
NCI/ADR-RES ovarian
  GI50: 32.2 µM
  TGI: > 100 µM
ACHN renal
  GI50: 18.8 µM
  TGI: 62.5 µM
HCC-2998 colon
  GI50: 23.6 µM
  TGI: 42.9 µM
MCF7 breast
  GI50: 15.8 µM
  TGI: 69.4 µM
T-47D breast
  GI50: 14.8 µM
  TGI: 97.5 µM
COLO 205 colon
  GI50: 26.8 µM
  TGI: 91.6 µM
TK-10 renal
  GI50: 22.8 µM
  TGI: 57.5 µM
A549 NSCLC
  GI50: 24.3 µM
  TGI: > 100 µM
SNB-75 CNS
  GI50: 66.2 µM
  TGI: > 100 µM
HT29 colon
  GI50: 19.1 µM
  TGI: > 100 µM
BT-549 breast
  GI50: 27.1 µM
  TGI: 60.4 µM
CAKI-1 renal
  GI50: 23.2 µM
